From US7737143B2, “Substituted pyrazines as kinase inhibitors” (YM Biosciences Australia Pty Ltd, priority 2003, dated 2010) come the findings set out here.

Molecules are shown by their SMILES.

Holding throughout (type): biochemical
One assay addresses kdr (Homo sapiens, UniProt P35968). In words: Kinase assay (ELISA or Alphascreen), kdr. Particulars: standard conditions, read-out: kdr inhibition of enzyme activity. On the procedure: (§1) Kinase assays were performed either in a 96 well capture-based ELISA assay or in 384 well Optiplates (Packard) using an Alphascreen Protein Tyrosine Kinase kit. In either case using approximately 15 μg of affinity purified PTK domain in the presence of 50 mM HEPES, pH 7.5, 10 mM MgCl2 150 mM NaCl and 10 μM-1 mM ATP. The biotinylated substrate biotin-EGPWLEEEEEAYGWMDF-NH2 (final concentration 5 μM) was used as substrate. In the ELISA assay tyrosine phosphorylation was quantitated following transfer to an avidin coated ELISA plate using peroxidase-linked anti-phospho-tyrosine antibody PY20. In the Alphascreen assay, Alphascreen phosphotyrosine acceptor beads followed by streptavidin donor beads were added under subdued light. The ELISA plates were read on a BMG Fluorostar, the Alphascreen plates were read on a Packard Fusion Alpha. Inhibitors were added to the assays fifteen minutes prior to the addition of ATP. Inhibitors were added in aqueous DMSO, with DMSO concentrations never exceeding 1%.
(In an ELISA, binding on a coated surface is turned into a signal by an enzyme label.)

A further assay concerns the target T1, human JAK3 (Homo sapiens, UniProt P52333).
T1 construct: The kinase domain of human JAK3 was amplified from U937mRNA; His tag (pFastBac HTb vector; nickel chelate purification) (N); made in house; host or cells: baculovirus; Sf9 for virus, High Five insect cells for production
The assay can be described thus: JAK kinase assay (ELISA or Alphascreen), Jak3. The note with it: standard conditions, read-out: Jak3 inhibition of enzyme activity.
Description: The kinase domain of human JAK3 was amplified from U937mRNA using the polymerase chain reaction with the following primers: […]
JAK3 PCR products were cloned into the pFastBac HTb expression vector (Gibco) via the Xho I and Kpn I sites. The JAK3 plasmid was then transformed into competent DH10Bac cells (Gibco), and the recombinant baculovirus produced prepared for transfection into Sf9 insect cells.
(§2) Baculovirus preparations from each of the JAK family members were infected into five litres of High Five cells (Invitrogen) grown in High Five serum free medium (Invitrogen) to a cell density of approximately 1-2×10^6 cells/ml. Cells are infected with virus at a MOI of 0.8-3.0. Cells were harvested and lysed. JAK kinase domains were purified by affinity chromatography on a Probond (Invitrogen) nickel chelate affinity column.
as §1

In a further assay the target is T2, human JAK2 (Homo sapiens, UniProt O60674).
T2 construct: The kinase domain of human JAK2 was amplified from U937mRNA; His tag (pFastBac HTc vector; nickel chelate purification) (N); made in house; host or cells: baculovirus; Sf9 for virus, High Five insect cells for production
The assay can be described thus: JAK kinase assay (ELISA or Alphascreen), Jak2. Particulars: standard conditions, read-out: Jak2 inhibition of enzyme activity.
Description: The kinase domain of human JAK2 was amplified from U937mRNA using the polymerase chain reaction with the following primers: […]
JAK2 PCR products were cloned into the pFastBac HTc expression vector (Gibco) via the Sal I and Not I sites. The JAK2 plasmid was then transformed into competent DHL10Bac cells (Gibco), and the recombinant baculovirus produced prepared for transfection into Sf9 insect cells.
as §2, §1

For a further assay, the target named is hck (Homo sapiens, UniProt P08631). The assay can be described thus: Kinase assay (ELISA or Alphascreen), hck. Particulars: standard conditions, read-out: hck inhibition of enzyme activity. On the procedure:
as §1

For another assay, the target named is T3, fms (Homo sapiens, UniProt P07333).
T3 sequence (P07333 582-910 limits assumed): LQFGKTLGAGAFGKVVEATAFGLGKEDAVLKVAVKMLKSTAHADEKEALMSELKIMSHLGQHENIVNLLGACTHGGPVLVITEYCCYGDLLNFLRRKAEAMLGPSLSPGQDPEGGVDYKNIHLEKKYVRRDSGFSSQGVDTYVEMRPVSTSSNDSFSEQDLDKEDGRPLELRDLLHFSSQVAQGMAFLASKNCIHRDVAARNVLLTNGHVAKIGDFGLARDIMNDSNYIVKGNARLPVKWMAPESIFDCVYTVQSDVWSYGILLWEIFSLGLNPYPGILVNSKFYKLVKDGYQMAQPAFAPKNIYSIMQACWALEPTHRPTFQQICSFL
In words: Kinase assay (ELISA or Alphascreen), fms. Particulars: standard conditions, read-out: fms inhibition of enzyme activity. The procedure: as §1

The next assay concerns the target T4, zap70 (Homo sapiens, UniProt P43403).
T4 sequence (P43403 338-600 limits assumed): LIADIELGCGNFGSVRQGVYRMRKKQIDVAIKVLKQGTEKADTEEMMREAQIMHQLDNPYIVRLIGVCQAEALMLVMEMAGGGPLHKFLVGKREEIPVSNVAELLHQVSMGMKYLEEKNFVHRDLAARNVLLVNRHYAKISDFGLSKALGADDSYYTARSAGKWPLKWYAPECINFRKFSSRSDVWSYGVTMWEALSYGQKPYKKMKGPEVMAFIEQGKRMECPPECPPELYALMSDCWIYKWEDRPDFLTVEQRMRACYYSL
The assay can be described thus: Kinase assay (ELISA or Alphascreen), zap70. The note with it: standard conditions, read-out: zap70 inhibition of enzyme activity. The procedure:
as §1

Another assay addresses tie2 (Homo sapiens, UniProt Q02763). In words: Kinase assay (ELISA or Alphascreen), tie2. The note with it: standard conditions, read-out: tie2 inhibition of enzyme activity. The procedure: as §1

T2 sequence (O60674 849-1124 limits assumed): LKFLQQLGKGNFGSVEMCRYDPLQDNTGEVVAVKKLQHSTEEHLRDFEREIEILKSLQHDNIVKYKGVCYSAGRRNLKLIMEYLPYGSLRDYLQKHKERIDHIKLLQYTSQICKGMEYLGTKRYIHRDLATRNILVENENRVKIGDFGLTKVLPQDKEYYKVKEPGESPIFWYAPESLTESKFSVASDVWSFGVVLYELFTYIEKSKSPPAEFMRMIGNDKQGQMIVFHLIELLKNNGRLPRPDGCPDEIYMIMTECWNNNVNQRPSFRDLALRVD
Chain of hck (P08631 262-515 limits assumed, species assumed): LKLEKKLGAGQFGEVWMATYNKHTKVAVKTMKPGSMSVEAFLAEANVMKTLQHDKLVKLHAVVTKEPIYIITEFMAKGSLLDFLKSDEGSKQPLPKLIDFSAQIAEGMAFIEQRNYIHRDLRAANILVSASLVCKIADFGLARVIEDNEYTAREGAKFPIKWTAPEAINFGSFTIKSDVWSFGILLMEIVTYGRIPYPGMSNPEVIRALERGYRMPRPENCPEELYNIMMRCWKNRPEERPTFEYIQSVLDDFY
Chain of kdr (P35968 834-1162 limits assumed, species assumed): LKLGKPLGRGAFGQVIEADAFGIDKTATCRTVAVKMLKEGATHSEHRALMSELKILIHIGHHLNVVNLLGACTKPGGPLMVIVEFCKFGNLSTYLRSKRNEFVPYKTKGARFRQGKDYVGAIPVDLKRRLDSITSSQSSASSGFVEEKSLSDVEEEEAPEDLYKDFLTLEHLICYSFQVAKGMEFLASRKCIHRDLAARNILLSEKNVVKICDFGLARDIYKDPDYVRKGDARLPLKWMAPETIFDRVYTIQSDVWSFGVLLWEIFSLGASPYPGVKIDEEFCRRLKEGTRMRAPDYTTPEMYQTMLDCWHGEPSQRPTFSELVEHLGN
Chain of tie2 (Q02763 824-1096 limits assumed, species assumed): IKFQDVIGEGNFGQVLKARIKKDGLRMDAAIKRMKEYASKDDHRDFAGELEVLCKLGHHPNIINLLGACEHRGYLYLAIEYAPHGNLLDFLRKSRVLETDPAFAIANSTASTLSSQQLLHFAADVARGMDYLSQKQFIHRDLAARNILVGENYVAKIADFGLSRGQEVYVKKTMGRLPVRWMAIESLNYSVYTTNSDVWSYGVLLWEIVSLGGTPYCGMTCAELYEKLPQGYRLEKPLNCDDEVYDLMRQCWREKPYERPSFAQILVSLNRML
T1 sequence (P52333 822-1111 limits assumed): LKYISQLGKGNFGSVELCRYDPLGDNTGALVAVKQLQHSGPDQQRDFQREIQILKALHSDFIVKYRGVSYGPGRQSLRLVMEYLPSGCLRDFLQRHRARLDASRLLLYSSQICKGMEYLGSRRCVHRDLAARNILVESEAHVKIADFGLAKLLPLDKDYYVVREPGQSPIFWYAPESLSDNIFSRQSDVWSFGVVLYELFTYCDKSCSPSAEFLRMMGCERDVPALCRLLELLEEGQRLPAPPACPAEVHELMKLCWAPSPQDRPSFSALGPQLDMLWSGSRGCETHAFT

What is called inhibition is the change of the read-out against control, counted positive when it falls. Regarding `CC(Nc1cncc(-n2cnc3ccc(CO)cc32)n1)c1ccc(F)cc1` (stereo not drawn), the inhibition at 20 µM at kdr was at least 50%; at human JAK3, below 50%; on human JAK2, at least 50%.
Consider `CC(Nc1cncc(-n2cnc3ccccc32)n1)c1ccncc1` (stereo not drawn), for which the inhibition at 20 µM at kdr was at least 50%; at human JAK3, below 50%; on human JAK2, below 50%.
For `COc1ccc2c(c1)CCC2Nc1cncc(-n2cnc3ccc(C#N)cc32)n1` (stereo not drawn), the inhibition at 20 µM was at least 50% on hck, below 50% at human JAK3 and below 50% on human JAK2.
As for `N#Cc1ccc2c(c1)ncn2-c1cncc(N[C@H]2CCCc3ccccc32)n1`, the inhibition at 20 µM at fms, at human JAK3 and at human JAK2 was at least 50% throughout.
Turning to `C[C@H](Nc1cncc(-n2cnc3cc(-c4nn[nH]n4)ccc32)n1)c1ccc(F)cc1`, the inhibition at 20 µM at human JAK3 is below 50%; at human JAK2, below 50%; at zap70 it was at least 50%.
As to `CNCCN(C)Cc1ccc2ncn(-c3cncc(NC(C)c4ccc(F)cc4)n3)c2c1` (stereo not drawn), the inhibition at 20 µM on kdr was at least 50%; at human JAK3, below 50%; at human JAK2 it was below 50%.
With `CC(Nc1cncc(-n2cnc3ccc(C#N)cc32)n1)c1cc(F)cc(F)c1` (stereo not drawn), the inhibition at 20 µM at hck, at human JAK3 and on human JAK2 was at least 50% in each case.
Turning to `C[C@H](Nc1cncc(-n2cnc3ccc(CN4CCOCC4)cc32)n1)c1ccc(F)cc1`, the inhibition at 20 µM on hck was at least 50%; at human JAK3, below 50%; on human JAK2 it was at least 50%.
Take `N#Cc1ccc2c(c1)ncn2-c1cncc(N[C@H]2CCc3ccccc32)n1`: the inhibition at 20 µM at kdr, at tie2, at human JAK3 and at human JAK2 was at least 50% each time.
In the case of `CC(Nc1cncc(-n2cnc3cc(CO)ccc32)n1)c1ccc(F)cc1` (stereo not drawn), the inhibition at 20 µM on kdr was at least 50%; at human JAK3 it was below 50%; on human JAK2 it was below 50%.
As to `N#Cc1ccc2c(c1)ncn2-c1cncc(NC2CCc3cc(F)ccc32)n1` (stereo not drawn), the inhibition at 20 µM at tie2, on human JAK3 and at human JAK2 was at least 50% in each case.
Consider `CCN(CC)Cc1ccc2c(c1)ncn2-c1cncc(NC(C)c2ccc(F)cc2)n1` (stereo not drawn), for which the inhibition at 20 µM at kdr was at least 50%; at human JAK3, below 50%; at human JAK2, below 50%.
In the case of `N#Cc1ccc2ncn(-c3cncc(N[C@H]4CCc5ccccc54)n3)c2c1`, the inhibition at 20 µM on tie2, at human JAK3 and on human JAK2 was at least 50% each time.
`CC[C@H](Nc1cncc(-n2cnc3cc(C#N)ccc32)n1)c1ccccc1`: the inhibition at 20 µM on kdr, on tie2, on human JAK3 and on human JAK2 was at least 50% in each case.
For `COc1cccc([C@H](C)Nc2cncc(-n3cnc4ccccc43)n2)c1`, the figures for the inhibition at 20 µM at kdr, on human JAK3 and on human JAK2 were at least 50%, below 50% and below 50%, respectively.
Regarding `Cc1ccc([C@H](C)Nc2cncc(-n3cnc4ccc(C#N)cc43)n2)cc1`, the inhibition at 20 µM at human JAK3, on human JAK2 and at zap70 was at least 50% each time.
For `Cc1ncc(-n2cnc3cc(C#N)ccc32)nc1N[C@@H](C)c1ccccc1`, the inhibition at 20 µM at kdr, at human JAK3 and on human JAK2 was at least 50% throughout.
Take `CO/C=C\N(C)CCCCNC(=O)c1ccc2ncn(-c3cncc(N[C@@H](C)c4ccccc4)n3)c2c1`: the inhibition at 20 µM at kdr, on human JAK3, on human JAK2 and at zap70 was at least 50% in each case.
Take `C[C@H](Nc1cncc(-n2cnc3ccccc32)n1)c1ccc(F)cc1`: the inhibition at 20 µM at human JAK3, at human JAK2 and on zap70 was at least 50% throughout.
In the case of `C[C@H](Nc1cncc(-n2cnc3ccc(CN4CCNCC4)cc32)n1)c1ccc(F)cc1`, the inhibition at 20 µM at tie2 was at least 50%; on human JAK3, at least 50%; on human JAK2, below 50%.
Regarding `Nc1ccc(-c2cncc(-n3cnc4ccccc43)n2)cc1`, the values for the inhibition at 20 µM at human JAK3, on human JAK2 and on zap70 were below 50%, at least 50% and at least 50%, respectively.
In the case of `C[C@@H](c1ccccc1)N(C)c1cncc(-n2cnc3ccc(C#N)cc32)n1`, the inhibition at 20 µM on kdr, at human JAK3 and on human JAK2 was at least 50% in each case.
Take `CC(Nc1cncc(-n2cnc3cc(CN(C)C)ccc32)n1)c1ccc(F)cc1` (stereo not drawn): the inhibition at 20 µM on kdr was at least 50%; on human JAK3, below 50%; at human JAK2 it was below 50%.
Turning to `CC(Nc1cncc(N2CNc3cc(CN4CCN(C)CC4)ccc32)n1)c1ccc(F)cc1` (stereo not drawn), the inhibition at 20 µM at kdr was at least 50%; at human JAK3, below 50%; at human JAK2 it was below 50%.
As to `C[C@H](Nc1cncc(-n2cnc3ccc(CN4CCCC4)cc32)n1)c1ccc(F)cc1`, the results for the inhibition at 20 µM at tie2, at human JAK3 and on human JAK2 were at least 50%, below 50% and at least 50%, respectively.
Consider `C[C@H](Nc1cncc(-n2cnc3cc(NC(=O)c4ccc(CN5CCN(C)CC5)cc4)ccc32)n1)c1ccccc1`, for which the inhibition at 20 µM is at least 50% on hck, below 50% on human JAK3, below 50% on human JAK2 and at least 50% on zap70.
Turning to `CC(Nc1cncc(-n2cnc3cnccc32)n1)c1ccc(F)cc1` (stereo not drawn), the inhibition at 20 µM is at least 50% at kdr, below 50% on human JAK3 and at least 50% on human JAK2.
Take `CC(Nc1cncc(-n2cnc3cc(C#N)ccc32)n1)c1cccnc1` (stereo not drawn): the inhibition at 20 µM at hck, at human JAK3 and at human JAK2 was at least 50% throughout.
In the case of `CC(Nc1cncc(-n2cnc3ccc(C#N)cc32)n1)c1cccc(F)c1` (stereo not drawn), the inhibition at 20 µM on hck, on human JAK3 and at human JAK2 was at least 50% throughout.
With `C[C@H](Nc1cncc(-n2cnc3cc(CO)ccc32)n1)c1ccc(F)cc1`, the inhibition at 20 µM on human JAK3 and on human JAK2 was below 50% in each case.
As for `CC(Nc1cncc(-n2cnc3cc(C#N)ccc32)n1)c1ccc(F)c(Cl)c1` (stereo not drawn), the inhibition at 20 µM on hck is at least 50%; on human JAK3, below 50%; on human JAK2, at least 50%.
Regarding `C[C@H](Nc1cncc(-n2cnc3ccc(CN(CCO)CCO)cc32)n1)c1ccc(F)cc1`, the inhibition at 20 µM on hck is at least 50%; at human JAK3, below 50%; on human JAK2, at least 50%.
`Cc1ncc(-n2cnc3ccc(C#N)cc32)nc1N[C@@H](C)c1cccc(F)c1`: the inhibition at 20 µM on tie2, at human JAK3 and at human JAK2 was at least 50% each time.
